# From a flash point compilation (Sun et al. 2020)
# Counter-ions that a name gives are not always drawn.
row,Structure (SMILES),flash point [°C]
1,ClCc1ccccc1Cl [1-chloro-2-(chloromethyl)benzene],91.00
2,CCCC(C)Br (stereo unspecified) [2-bromopentane],21.00
3,CC(C)CCCCCOP(=S)([S-])OCCCCCC(C)C.CC(C)CCCCCOP(=S)([S-])OCCCCCC(C)C.[Zn+2],160.00
4,"Nc1cccc2c(N)cccc12 [naphthalene-1,5-diamine]",226.00
5,"CCC1(c2ccccc2)C(=O)NC(=O)NC1=O [5-ethyl-5-phenyl-1,3-diazinane-2,4,6-trione]",174.00
6,CNc1ccccc1 [N-methylaniline],79.00
7,Ic1ccccc1 [iodobenzene],77.00
8,CSCCC=O [3-methylsulfanylpropanal],61.00
9,"CN(C)C(=S)SSC(=S)N(C)C [dimethylcarbamothioylsulfanyl N,N-dimethylcarbamodithioate]",138.00
10,CCCCCCl [1-chloropentane],1.00
11,O=[N+]([O-])c1ccccc1O [2-nitrophenol],108.00
12,CC=O [acetaldehyde],-40.00
13,Cc1ccc(N)cc1 [4-methylaniline],87.00
14,CCCCCCCCCCCCCCCCCCCCCC [docosane],113.00
15,c1cc(OCC2CO2)cc(OCC2CO2)c1 (stereo unspecified) [2-[[3-(oxiran-2-ylmethoxy)phenoxy]methyl]oxirane],177.00
16,CC(C)N(C(=O)SCC(Cl)=CCl)C(C)C,96.00
17,"C1=C\CCCC\C=C/1 [(1Z,3Z)-cycloocta-1,3-diene]",35.00
18,"O=C=Nc1cccc2c(N=C=O)cccc12 [1,5-diisocyanatonaphthalene]",155.00
19,C[CH2][Al]([Cl])[CH2]C.C[CH2][Al]([Cl])[Cl] [chloro(diethyl)alumane;dichloro(ethyl)alumane],-20.00
20,Cc1ccccc1C=O [2-methylbenzaldehyde],67.00
21,"Cc1cccc([N+](=O)[O-])c1C [1,2-dimethyl-3-nitrobenzene]",107.00
22,C=CCN=C=S [3-isothiocyanatoprop-1-ene],46.00
23,CC1CCC(CO)CC1 (stereo unspecified) [(4-methylcyclohexyl)methanol],112.00
24,CCNCCO [2-(ethylamino)ethanol],71.00
25,"O=C(Cl)C(Cl)Cl [2,2-dichloroacetyl chloride]",66.00
26,C=CCCCCCCCCC [undec-1-ene],71.00

row,Structure (SMILES),flash point [°C]
1,CC(C=O)=Cc1ccccc1 [2-methyl-3-phenylprop-2-enal],79.00
2,CCOP(OCC)OCC [triethyl phosphite],46.00
3,CCCCCN [pentan-1-amine],7.00
4,"CC(C)c1ccc(NC(=O)N(C)C)cc1 [1,1-dimethyl-3-(4-propan-2-ylphenyl)urea]",100.00
5,"Clc1cccc(Cl)c1 [1,3-dichlorobenzene]",63.00
6,O=[N+]([O-])c1cccc(C(F)(F)F)c1 [1-nitro-3-(trifluoromethyl)benzene],101.00
7,CCCCCON=O [pentyl nitrite],10.00
8,CC(C)[N+](=O)[O-] [2-nitropropane],24.00
9,CCNc1ccccc1 [N-ethylaniline],85.00
10,Cl[Si](Cl)(Cl)c1ccccc1 [trichloro(phenyl)silane],91.00
11,C=CCBr [3-bromoprop-1-ene],-2.00
12,CCCC=O [butanal],-7.00
13,CCc1ccc2ccccc2c1 [2-ethylnaphthalene],104.00
14,"Oc1cc(O)c2cc(O)c(-c3cc(O)c(O)c(O)c3)[o+]c2c1.[Cl-] [2-(3,4,5-trihydroxyphenyl)chromenylium-3,5,7-triol;chloride]",193.00
15,"CCc1ccc(CC)cc1 [1,4-diethylbenzene]",56.00
16,"Clc1ccc(Cl)cc1 [1,4-dichlorobenzene]",66.00
17,CC(C)CC(C)O (stereo unspecified) [4-methylpentan-2-ol],41.00
18,NC1CCCCC1 [cyclohexanamine],31.00
19,"CN(C)C(=S)[S-].CN(C)C(=S)[S-].[Zn+2] [zinc;N,N-dimethylcarbamodithioate]",93.00
20,"CC(=O)CC(=O)Nc1ccc(C)cc1C [N-(2,4-dimethylphenyl)-3-oxobutanamide]",171.00
21,COC(=O)CCl [methyl 2-chloroacetate],52.00
22,"O=C(OC1CCCCC1)c1ccccc1C(=O)OC1CCCCC1 [dicyclohexyl benzene-1,2-dicarboxylate]",207.00
23,CN=C=S [methylimino(sulfanylidene)methane],35.00
24,"C=C1C2CCC(C2)C1(C)C (stereo unspecified) [2,2-dimethyl-3-methylidenebicyclo[2.2.1]heptane]",33.00
25,"CC1=CC(=O)CC(C)(C)C1 [3,5,5-trimethylcyclohex-2-en-1-one]",84.00
26,C1COC1 [oxetane],-28.00

row,Structure (SMILES),flash point [°C]
1,"COc1ccc(OC)cc1 [1,4-dimethoxybenzene]",88.00
2,C(OCC1CO1)C1CO1 (stereo unspecified) [2-(oxiran-2-ylmethoxymethyl)oxirane],64.00
3,"O=Cc1c(Cl)cccc1Cl [2,6-dichlorobenzaldehyde]",135.00
4,CCC1CCCCC1 [ethylcyclohexane],35.00
5,"Cc1c(Cl)cccc1Cl [1,3-dichloro-2-methylbenzene]",82.00
6,CCCCN(CC)N=O [N-butyl-N-ethylnitrous amide],93.00
7,"CCCCCCC(C)(C)C(=O)OCC1CO1 (stereo unspecified) [oxiran-2-ylmethyl 2,2-dimethyloctanoate]",129.00
8,"NCCCN [propane-1,3-diamine]",24.00
9,C1=Cc2cccc3cccc1c23 [acenaphthylene],122.00
10,"CN(C)N [1,1-dimethylhydrazine]",-15.00
11,"CC(C)C(O)C(C)(C)CO (stereo unspecified) [2,2,4-trimethylpentane-1,3-diol]",113.00
12,C=C [ethene],-136.00
13,OCCS [2-sulfanylethanol],74.00
14,C#CCN1CC(=O)N(COC(=O)C2C(C=C(C)C)C2(C)C)C1=O (stereo unspecified),110.00
15,c1ccsc1 [thiophene],-1.00
16,CCOC(=O)C(=O)OCC [diethyl oxalate],76.00
17,C[Si]1(C)O[Si](C)(C)O[Si](C)(C)O[Si](C)(C)O[Si](C)(C)O[Si](C)(C)O1,91.00
18,"C=CCCCCC=C [octa-1,7-diene]",9.00
19,COC(=O)C(C)O (stereo unspecified) [methyl 2-hydroxypropanoate],51.00
20,"CN(C)c1ccc(Cc2ccc(N(C)C)cc2)cc1 [4-[[4-(dimethylamino)phenyl]methyl]-N,N-dimethylaniline]",211.00
21,"CC(Cl)Cl [1,1-dichloroethane]",-6.00
22,CC(C)Nc1ccccc1 [N-propan-2-ylaniline],88.00
23,C=C(C)C(=O)OCCN(C)C [2-(dimethylamino)ethyl 2-methylprop-2-enoate],74.00
24,N#CCCNCCC#N [3-(2-cyanoethylamino)propanenitrile],110.00
25,CCCCCOC(=O)CCC [pentyl butanoate],57.00
26,"CCC(CO)(CO)CO [2-ethyl-2-(hydroxymethyl)propane-1,3-diol]",172.00

row,Structure (SMILES),flash point [°C]
1,C=C(C)C(=O)OCCCC [butyl 2-methylprop-2-enoate],52.00
2,c1ccc2c(c1)-c1cccc3cccc-2c13 [fluoranthene],198.00
3,C=C(C)C1CC=C(C)CC1 (stereo unspecified) [1-methyl-4-prop-1-en-2-ylcyclohexene],46.00
4,CCCCN=C=O [1-isocyanatobutane],19.00
5,Nc1ccc2ccccc2c1 [naphthalen-2-amine],157.00
6,CCOc1ccccc1 [ethoxybenzene],63.00
7,CC1CCCCC1 [methylcyclohexane],-4.00
8,N#CCC#N [propanedinitrile],130.00
9,CC(O)CCl (stereo unspecified) [1-chloropropan-2-ol],52.00
10,C=CC(=O)OCCCCCC [hexyl prop-2-enoate],68.00
11,"CC(CCN(C)C)N(C)C (stereo unspecified) [1-N,1-N,3-N,3-N-tetramethylbutane-1,3-diamine]",46.00
12,CCCOCCC [1-propoxypropane],21.00
13,C=C[Si](Cl)(Cl)Cl [trichloro(ethenyl)silane],21.00
14,NCc1cccc(CN)c1 [[3-(aminomethyl)phenyl]methanamine],117.00
15,"CCCCCN(CCCCC)CCCCC [N,N-dipentylpentan-1-amine]",102.00
16,CCCCCCCOC(C)=O [heptyl acetate],68.00
17,COCCOCCOCCOCCO [2-[2-[2-(2-methoxyethoxy)ethoxy]ethoxy]ethanol],161.00
18,C=CC(=O)OCCCO [3-hydroxypropyl prop-2-enoate],97.00
19,Cc1ccc(N)cc1Cl [3-chloro-4-methylaniline],100.00
20,"SCCCS [propane-1,3-dithiol]",59.00
21,C#CC(=O)O [prop-2-ynoic acid],58.00
22,O=C/C=C/c1ccccc1 [(E)-3-phenylprop-2-enal],71.00
23,"CC(C)COC(=O)c1ccccc1C(=O)OCC(C)C [bis(2-methylpropyl) benzene-1,2-dicarboxylate]",196.00
